Results: patent US9809640B2, “ApoE peptide dimers and uses thereof” (priority 2010, dated 2017)
pEC50, pIC50: −log10 of the molar value. Positions of bridges follow the written chain, without caps; N, C: chain ends. Chains are numbered I, II in the order given.

How the values were obtained:
BV2 microglia cells = test: LPS-induced nitric oxide production in BV2 microglia cells; type: cell-based
Procedure: FIG. 1. COG 112 inhibits LPS-induced production of inflammatory cytokines in BV2 microglia cells. Inhibition curves for COG112 in the production of NO (green squares), TNFα (red diamonds), and IL-6 (blue triangles) by BV2 microglia. Compounds were added to the final concentrations indicated on the graph along with 100 ng/mL of LPS. After 24 hours the media was removed and assayed by two-site ELISA (BioSource) and quantitated relative to a standard curve on the same plate.
FIG. 3. NO Inhibition curve for COG449. BV2 microglia were treated with COG449 at the final concentrations indicated on the graph, along with 100 ng/mL of LPS. After 24 hours the media was removed and assayed by two-site ELISA (BioSource) and quantitated relative to a standard curve on the same plate.
We also evaluated the various peptides for efficacy in suppressing nitric oxide production induced by LPS stimulation of BV2 microglia cells as a measure of anti-inflammatory activity as well as the maximum dose tolerated in mice (Table I and FIG. 6A). For the LPS assay, EC50 is the concentration of compound that caused a 50% suppression of nitric oxide release from BV2 cells following LPS stimulation. For mouse toxicity, MTD is the maximum dose of the compound that can be given by intravenous injection without causing deaths after 24 hrs. […] Coupling the ApoE domain to a protein transduction domain further enhanced the potency of the dimers.
Low passage BV2 microglial cell cultures are maintained in 10% HI (Heat Inactivated) FBS DMEM media (supplemented with MEM NEAA (Non-Essential Amino Acids), sodium pyruvate and Pen-Strep) and continuously cultured until needed. To determine the IC50 values for NO production, peptides are added to BV2 cultures in 1% HI FBS DMEM media (supplemented with MEM NEAA and sodium pyruvate) at a range of final assay concentrations from 1.0 μM in 2 fold dilutions to 7.8 nM followed immediately by addition of LPS (100 ng/mL final concentration) as previously described (Laskowitz et al. (2001) Exp Neurol, Vol. 167(1): 74-85). After incubating for 18±1 hours, conditioned media is removed for analysis of nitrite (the stable oxidation product of released nitric oxide) by the Griess colorimetric assay (Promega). Remaining cells are assayed for viability in an MTT assay (Promega) and the nitrite assay values are normalized for each concentration using the percent viability of cells in the MTT assay. […] Typically, the absence of LPS exposure to BV2 cells results in levels below the limit of detection in our assays. Similarly, addition of any of the peptides up to 25 μM without LPS results in undetectable NO levels.

[1] = Mouse toxicity, maximum tolerated dose by intravenous injection; conditions: in vivo, maximum dose by intravenous injection without deaths after 24 hrs
PP2A = test: Phosphatase activity of PP2A immunoprecipitated from MDA-MB-231 cells; type: cell-based; conditions: concentrations ≧100 nM, EGF-stimulated MB231
From the text: (§1) FIG. 12A: Total PP2A activity immunoprecipitated from MDA-MB-231 cells treated with EGF and increasing concentrations of COG445. FIG. 12B: Western blot and densitometry analysis of total c-myc protein levels in U87 cells treated with the indicated concentrations of COG445 in the presence or absence of okadaic acid. FIG. 12C: Immunoprecipitation of the catalytic subunit of PP2A from MDA-MB-231 cells exposed to EGF and two different concentrations of COG445. The blot is probed for I2PP2A (SET) and PP2A catalytic subunit.
To further characterize the effect of COG445 on PP2A activity, MB231 cells were treated as above and the phosphatase activity of immunoprecipitated PP2A was measured. EGF stimulation caused a significant decrease in total PP2A activity compared to untreated serum starved cells (FIG. 12A). […] To further explore the extent of PP2A activation in response to COG445, total c-myc protein levels were determined by western blot analysis. C-myc is a substrate for PP2A and upon dephosphorylation is metabolized by ubiquitination and proteasomal degradation. In both U87 (FIG. 12B) and MB231 (data not shown) cell lines, c-myc levels decreased after a two-hour exposure to COG445 in a dose-dependent manner, reaching statistical significance at 1000 nM.

[2] = target: T1, I2PP2A (SET) / PP2A catalytic subunit (Homo sapiens, UniProt Q01105); test: Co-immunoprecipitation of I2PP2A (SET) with PP2A catalytic subunit in MB231 cells; type: cell-based; conditions: 0.1 or 1 μM pre-treatment
T1 construct: endogenous in cells; host or cells: MDA-MB-231
T1 sequence (Q01105 2-290 limits assumed): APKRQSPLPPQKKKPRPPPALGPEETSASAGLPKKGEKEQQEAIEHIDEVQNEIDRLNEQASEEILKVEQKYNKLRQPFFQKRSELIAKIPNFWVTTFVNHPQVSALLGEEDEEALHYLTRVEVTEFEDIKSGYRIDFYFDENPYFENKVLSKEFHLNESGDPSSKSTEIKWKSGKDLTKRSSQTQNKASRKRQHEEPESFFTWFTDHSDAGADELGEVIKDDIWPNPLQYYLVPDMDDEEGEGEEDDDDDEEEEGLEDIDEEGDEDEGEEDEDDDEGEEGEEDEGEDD
From the text: as §1
To examine the mechanism of COG445 on PP2A activity, recombinant human PP2A catalytic subunit was incubated with COG445 and activity was measured. […] To further explore the changes of PP2A protein complexes, co-immunoprecipitation experiments were performed on MB231 cells.

GSK-3β = GSK-3β phosphorylation in MB231 cells, Western blot; type: cell-based; conditions: markedly reduced at ≧100 nM
From the text: FIG. 13A: Western blot and densitometry analysis of phosphorylated m-TOR levels in MDA-MB-231 cells treated with EGF and the indicated concentrations of COG445 in the presence or absence of okadaic acid. FIG. 13B: Western blot analysis of phosphorylated GSK-3β levels in MDA-MB-231 cells treated with EGF and the indicated concentrations of COG445 in the presence or absence of okadaic acid.
Akt exerts its proliferative signal by phosphorylating protein substrates such as mTOR and GSK-3β. To examine the effects of COG445 on downstream Akt signaling in MB231 cells, mTOR activation and GSK-3β inhibition was measured by western blot analysis. […] The reduction in mTOR and GSK-3β phosphorylation was eliminated in the presence of okadaic acid, further evidence that PP2A mediates the effects of COG445 on Akt signaling.

MDA-MB-231 cells = test: MB231 cellular proliferation by cell count; type: cell-based
Procedure: FIG. 14A: Dose response curve of COG445 on proliferation of U87 (open circles) and MDA-MB-231 (filled circles) cells as measured by MTT reduction. FIG. 14B: Dose response curve of COG445 on proliferation of MDA-MB-231 cells as measured by cell count.
Because COG445 inhibited Akt activation and downstream signaling, we examined the effects of COG445 on cellular proliferation. Adherent MB231 and U87 cells were grown for ˜24 hours in the presence of COG445 and cellular proliferation was measured by MTT reduction. […] Furthermore, COG445 inhibited MB231 cellular proliferation as determined by cell count (FIG. 14B). Approximately 6×10^4 cells were plated in growth media (RPMI+10% FBS) for 24-hours with increasing concentrations of COG445. […] However at concentrations ≧1 μM COG445, there appears to be a loss of cells. This is partially explained by decreased proliferation, although it is possible that the rate of cellular degradation was increased in the presence of COG445.

Substance: I: Ac-RQIKIWFQNRRMKWKKCLRVRLASHLRKLRKRLL-NH2 / II: Ac-RQIKIWFQNRRMKWKKCLRVRLASHLRKLRKRLL-NH2 (disulfide I:17-II:17) [COG445, COG112-C-C-COG112]
- pEC50 (BV2 microglia cells; 50% suppression of nitric oxide release from BV2 cells following LPS stimulation): > 6.00
- pIC50 (BV2 microglia cells; BV2 cells, LPS 100 ng/mL, read-out: IC50 for NO production/release): 7.70
- MTD at 24 h [1]: 28 mg/kg
- PP2A activity (PP2A): significant (P<0.01) increase
- association of I2PP2A to the catalytic subunit of PP2A [2]: strongly diminished
- GSK-3β phosphorylation upon EGF stimulation (GSK-3β): dose-dependent decrease
- cellular proliferation by cell count (MDA-MB-231 cells; 0.1 μM): slight decrease
- cellular proliferation by cell count (MDA-MB-231 cells; 24 hours): inhibited
- cell count (MDA-MB-231 cells; ≧1 μM): loss of cells
